Values after ≈ are worked out from the molar mass of the structure shown.
Legend:
[1] = Cytotoxicity against rat brain neonatal microglia by LDH release assay
[2] = Antineuroinflammatory activity in rat brain neonatal microglia assessed as inhibition of LPS-induced superoxide anion generation; assay type: functional, tissue-based
[3] = Antineuroinflammatory activity in rat brain neonatal microglia assessed as inhibition of LPS-induced TXB2 generation; assay type: functional, tissue-based
[4] = test system: Mycobacterium tuberculosis; test: Antimycobacterial activity against Mycobacterium tuberculosis H37Rv; assay type: functional
[5] = test system: A2058; test: Cytotoxicity against human A2058 cells; assay type: functional
[6] = test system: DU-145; test: Cytotoxicity against human DU145 cells; assay type: functional
[7] = Antineuroinflammatory activity in rat brain neonatal microglia; assay type: functional, tissue-based

CC(=O)O[C@@H](CC[C@@H](C)[C@@H]1CCC(C)=C[C@H]1O)[C@](C)(O)CCC=C(C)C
IC50 [1]: > 10000 nM
IC50 [2]: 1000 nM
IC50 [3]: 400 nM
MIC [4]: 59.4 µg/mL (≈ 162 µM)
Activity [5]: 67%
Activity [6]: 77%

CC(=O)Oc1ccccc1C(=O)O [ASPIRIN]
IC50 ([7]; read-out: IC50): 3.2 nM

CC(C(=O)O)c1ccc(-c2ccccc2)c(F)c1 (stereo not drawn) [FLURBIPROFEN]
IC50 ([7]; read-out: IC50(app)): 100 nM

Source: ChEMBL document CHEMBL3098121, “Dactyloditerpenol acetate, a new prenylbisabolane-type diterpene from Aplysia dactylomela with significant in vitro anti-neuroinflammatory activity” (Bioorg Med Chem Lett, 2014)
